Paper PMC3102704, “New Classes of Alanine Racemase Inhibitors Identified by High-Throughput Screening Show Antimicrobial Activity against Mycobacterium tuberculosis” (PLoS ONE, 2011)
Converted amounts (≈) assume the structure as drawn. “And” between values parts separate entries of the source, which are not always exact repeats. Equal values may be shown once. Read-outs that look alike come from different tables or passages of the source.

Tests used:
HeLa cells = assay: Compound cytotoxicity, WST-1 Cell Proliferation Reagent; format: cell-based; conditions: for TC50, cytotoxicity in HeLa cells: 48 hours exposure, WST-1
Method: HeLa cells were grown to confluence overnight (37°C, 5% CO2) in Dulbecco's Modified Eagle Medium with 10% fetal bovine serum (Invitrogen, Carlsbad, CA). The following day, 3000 cells were plated into each well of a 96-well plate and grown overnight. Compounds were diluted in culture medium and added to the cells to yield final concentrations of 100, 50, 25, 12.5, and 6.25 µg/ml. The cells were exposed to the compounds for 48 hours, after which the effect on cells was determined using the WST-1 Cell Proliferation Reagent (Roche Applied Science, Indianapolis, IN) according to manufacturer's protocols. Absorbance at 450 nm was used to calculate percent cytotoxicity with respect to a DMSO solvent control. The results were fitted onto a sigmoidal dose-response curve using Prism software to calculate the TC50 (compound concentration that causes 50% cell death).

[1] = molecular target: T1, M. tuberculosis alanine racemase (Mycobacterium tuberculosis, UniProt P9WQA9); assay: biochemical; format: biochemical; conditions: D-alanine 0.5-2.5 mM, inhibitor 0.01 to 0.98 mM
T1 sequence (P9WQA9 whole entry): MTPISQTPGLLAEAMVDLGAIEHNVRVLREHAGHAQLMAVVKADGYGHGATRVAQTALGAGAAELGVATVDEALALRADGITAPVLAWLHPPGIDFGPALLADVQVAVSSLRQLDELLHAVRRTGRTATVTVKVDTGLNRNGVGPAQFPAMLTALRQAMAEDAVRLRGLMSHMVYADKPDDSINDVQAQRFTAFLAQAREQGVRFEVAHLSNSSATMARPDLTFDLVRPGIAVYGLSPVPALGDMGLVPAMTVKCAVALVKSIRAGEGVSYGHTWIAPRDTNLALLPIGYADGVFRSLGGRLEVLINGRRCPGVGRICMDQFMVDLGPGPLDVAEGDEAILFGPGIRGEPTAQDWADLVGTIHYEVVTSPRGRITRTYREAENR

[2] = molecular target: T1, M. tuberculosis alanine racemase; assay: biochemical; conditions: 30-minute pre-incubation with inhibitor, triplicate
[3] = molecular target: T1, M. tuberculosis alanine racemase; format: binding; conditions: 4 µM alanine racemase with 1 mM inhibitor
Method: Electrospray ionization mass spectrometry (ESMS) was performed to detect direct interactions of inhibitors with enzyme. A mixture of 15 µl of sample (4 µM alanine racemase with 1 mM inhibitors) was diluted with 15 µl 2% acetonitrile/0.1% formic acid. Samples were then de-salted using C4 ZipTip, eluted into 15 µl 60% acetonitrile/0.1% formic acid, and directly injected into Qtof-micro MS instrument (Waters Corp., Milford, MA).

M. tuberculosis H37Rv [4] = assay: Microbroth dilution MIC determination; format: cell-based, Mycobacterium tuberculosis; conditions: for MIC: M. tuberculosis H37Rv, microbroth dilution, 21 days, read-out: MIC against M. tuberculosis
M. tuberculosis H37Rv [5] = assay: Antimicrobial susceptibility in BACTEC MGIT 960 system; format: cell-based, Mycobacterium tuberculosis; conditions: for Mtb: antimicrobial activity against M. tuberculosis / Mtb: antimicrobial activity against M. tuberculosis (supplement table): M. tuberculosis H37Rv, BACTEC, 50 and 100 µg/ml; for Growth inhibition of M. tuberculosis H37Rv in BACTEC culture tubes: final concentration of 50 and 100 µg/ml
[6] = Mycobacterium tuberculosis, 504 h

Row | Molecule | TC50, cytotoxicity in HeLa cells (HeLa cells) [µM] | Cytotoxicity relative to MIC (HeLa cells; compared with MIC against M. tuberculosis) | Ki [1] [µM] | IC50 [2] [µM] | Nature of inhibitor-enzyme interaction by ESMS [3] | MIC (M. tuberculosis H37Rv [4]; [6]) | Mtb: antimicrobial activity against M. tuberculosis (M. tuberculosis H37Rv [5]) | Mtb: antimicrobial activity against M. tuberculosis (supplement table) (M. tuberculosis H37Rv [5]) | Growth inhibition of M. tuberculosis H37Rv in BACTEC culture tubes (M. tuberculosis H37Rv [5]) | Increase in the MIC in the presence of D-alanine (M. tuberculosis H37Rv [4]; 5 mM D-alanine in the growth medium, data not shown) [fold] | MIC (M. tuberculosis H37Rv [4]) [µM]
1 | O=C1Nc2ccccc2C(=O)C1(O)O [L2-16, 3,3-dihydroxy-1H-quinoline-2,4-dione] | 33.7 | cytotoxic at slightly above its MIC | 20 | 5.2 | reversible | 32.4 µM (≈ 6.26 µg/mL) | + | + | inhibited growth at both concentrations |  | 
2 | N[C@@H]1CONC1=O [CS, (4R)-4-amino-3-isoxazolidinone, reference compound] | 203 |  |  |  | irreversible modification of the enzyme | 6.5 µg/mL and 65 µM | + | + |  | 3 | 
3 | COc1ccc(NC(=O)c2nc(S(C)(=O)=O)ncc2Cl)cc1Cl [L2-06, 5-chloro-N-(3-chloro-4-methoxyphenyl)2(methylsulfonyl)pyrimidine-4carboxamide] | 18.8 |  | 760 | 8.2 | irreversible | < 4.5 µM | + | + | inhibited growth at both concentrations |  | 
4 | COC(=O)c1cccc(C(=O)Oc2ccc(OC(=O)c3cccc(C(=O)OC)n3)c(Cl)c2)n1 [L2-10, 6-O-[3-chloro-4-(6-methoxycarbonylpyridine-2-carbonyl)oxyphenyl]2-O-methyl pyridine-2,6-dicarboxylate] | 157.2 |  | 680 | 1 | not definitive |  | + | + | inhibited growth at both concentrations |  | 13.6 (≈ 6.4 µg/mL)
5 | CCOc1ccc(CCNC(=O)Cn2sc3nc(C)cc(C)c3c2=O)cc1 [L2-13, 2-(4,6-dimethyl-3-oxo-[1], [2]thiazolo[5,4-b]pyridin-2-yl)-N-[2-(4-ethoxyphenyl)ethyl]acetamide] | 36.4 |  | 930 | 7.7 | irreversible |  | + | + | inhibited growth at both concentrations |  | 16.2 (≈ 6.24 µg/mL)
6 | O=C(COc1ccccc1O)NO [L2-03, N-hydroxy-2-(2-hydroxyphenoxy)acetamide] |  |  |  | 8.2 |  |  | − | - |  |  | 
7 | O=C(O)CSC(=S)Nc1cccnc1 [L2-11, 2-(pyridin-3-ylcarbamothioylsulfanyl)acetic acid] |  |  |  | 13.1 |  |  | − | - |  |  | 
8 | CS(=O)(=O)c1ncc(Cl)c(C(=O)NCc2ccccc2)n1 [L2-05, N-benzyl-5-chloro-2-methylsulfonylpyrimidine-4-carboxamide] | 20 |  | 630 | 6.8 | irreversible | 9 µM (≈ 2.93 µg/mL) | + | + | inhibited growth at both concentrations |  | 
9 | Cc1ccc(CC(=S)N2CCOCC2)cc1 [L2-07, 2-(4-methylphenyl)-1-morpholin-4-ylethanethione] |  |  |  | 6.5 |  |  | − | - |  |  | 
10 | O=C(c1cccs1)c1no[n+]([O-])c1C(=O)c1cccs1 [L2-18, 1,1′-(2-oxido-1,2,5-oxadiazole-3,4-diyl)-bis (1-(2-thienyl))-methanone] |  |  |  | 4.9 |  |  | − | - |  |  | 
11 | CCOC(=O)CCSc1ccccn1 [L2-04, ethyl 3-(pyridin-2-ylthio)propanoate] | 229.8 |  | 38 | 2.6 | reversible | 59 µM (≈ 12.5 µg/mL) | + | + | inhibited growth at both concentrations |  | 
12 | Cc1ccc(S(=O)(=O)NN(C)C)cc1 [L2-01, N′,N′,4-trimethylbenzenesulfonohydrazide] |  |  |  | 9 |  |  | − | - |  |  | 
13 | S=C(Cc1ccccc1)N1CCCCC1 [L2-12, 2-phenyl-1-piperidin-1-ylethanethione] | 406 |  | 80 | 6 | irreversible | 28.6 µM (≈ 6.27 µg/mL) | + | + | inhibited growth at both concentrations |  | 
14 | CNC(=O)COc1ccccc1O [L2-15, 2-(2-hydroxyphenoxy)-N-methylacetamide] |  |  |  | 5.7 |  |  | − | - |  |  | 
15 | COc1ccc(CC(=S)N2CCOCC2)cc1 [L2-09, 2-(4-methoxyphenyl)-1-morpholin-4-ylethanethione] |  |  |  | 3.3 |  |  | − | - |  |  | 
16 | 2-(hydoxyimino)-6-methyl-2H-benzopyran-3-carboxamide [L2-14] |  |  |  | 2.8 |  |  | − | - |  |  | 
17 | CN(C)NS(=O)(=O)c1ccc2c(c1)Cc1cc(S(=O)(=O)NN(C)C)ccc1-2 [L2-02, 2-N′,2-N′,7-N′,7-N′-tetramethyl-9H-fluorene-2,7-disulfonohydrazide] |  |  |  | 1.6 |  |  | − | - |  |  | 
